Entries after “also recorded” stand apart in the source; their conditions may differ.
Tests used:
Assay type in all cases: cell-based
[1] = system: living cells; assay: Fluorescence dye bonded to living cells: does the cell stay alive; details: dye bonded to living cells
Description: As the said fluorescence dye, the above DAPI can be employed. Although the DAPI itself is known, the use for the observation of the cell division while keeping the cells alive is unknown. The present inventors have investigated such fluorescence dye as Hoechst 33258, acridine orange and acridine yellow other than the DAPI.

[2] = system: human leutecyte strain cell (RPMI-8402); assay: Extinction effect of compatible administration of l-OHP and a compatible agent on tumor cells (compatible efficiency OE); details: for Compatible Effects of l-OHP and Compatible Agent, Simultaneous Administration: both added day 1
Protocol: In the evaluation of the extinction effect of the tumor cells of the respective combinations, a pure extinction effect produced by the compatible administration of the compatible agent and the l-OHP is calculated by subtracting an extinction effect of a control (no carcinostatic substance is employed).
The compatibly administration effect is calculated by employing an Equation (1) described later. When the value (%) calculated by this Equation is between 85 and 115%, the compatible administration effect is evaluated to be an additive effect. When the value is below 85%, it is evaluated to be below the additive effect. When the value is over 115%, it is evaluated to be a synergistic effect, ±15% is a reliability limit or a measurement error.
A target tumor cell was a human leutecyte strain cell (RPMI-8402 of Gibuko K.K.). To these cells was added blood serum of a cow embryo (15%, Gibuko K.K.) to prepare a cell floating liquid of which the number of the cells was 10^6/ml in a cultivation bottle (tradename; Sumiron of Sumitomo Bakelite o., Ltd.) having a volume of 6 ml. A plenty of the cultivation bottles having the cell floating liquid therein were prepared, and the following experiments were conducted while selecting one kind of a compatible agent among cisplatin, 5-FU, irinotecane, adriamycin, etoposide, mitomycin, mitoxantrone, bleomycin, vincristin and vindecin. The time schedules of the controls (no addition of medicines, addition of only the l-OHP and addition of only a compatible agent, and specified in the below items (1) to (4)) and of the compatible administration of the compatible agent and the l-OHP are shown in FIG. 10.
(1) No medicine was added (control).
(2) Only the l-OHP was added at a second day.
(3) A large amount of compatible agents were added at a first day ([…] of the cisplatin, 10 μg/ml of the 5-FU, 0.05 μg/ml of the adriamycin and 1 μg/ml of the etoposide, and for the comparison purpose, 0.05 μg/ml of the vincristin and 0.06 μg/ml of the vindecin). The adding amount of the irinotecano was fixed to 10 μg/ml, and the addition amount of the l-OHP was 5 μg/ml.
(4) A small amount of compatible agents were added at a first day (0.5 μg/ml of the cisplatin, 5 μg/ml of the 5-FU, 0.01 μg/ml of the adriamycin and 0.5 μg/ml of the etoposide, and for the comparison purpose, 0.01 μg/ml of the vincristin and 0.01 μg/ml of the vindecin). The adding amount of the irinotecane was fixed to 10 μg/ml, and the addition amount of the l-OHP was 1 μg/ml.
(5) The l-OHP and a large amount (the same as that of the above item (3) and so forth in the following items) of the compatible agents were simultaneously added at a first day.
(6) The l-OHP and a small amount (the same as that of the above item (4) and so forth in the following items) of the compatible agents were simultaneously added at a first day.
(7) The l-OHP was added at a first day and a large amount of the compatible agents were added at a second day.
(8) The l-OHP was added at a first day and a small amount of the compatible agents were added at a second day.
(9) The l-OHP was added at a first day and a large amount of the compatible agents were added at a third day.
(10) The l-OHP was added at a first day and a small amount of the compatible agents were added at a third day.
(11) The l-OHP was added at a first day and a large amount of the compatible agents were added at a fourth day.
(12) The l-OHP was added at a first day and a small amount of the compatible agents were added at a fourth day.
(13) A large amount of the compatible agents were added at a first day and the l-OHP was added at a second day.
(14) A small amount of the compatible agents were added at a first day and the l-OHP was added at a second day.
(15) A large amount of the compatible agents were added at a first day and the l-OHP was added at a third day.
(16) A small amount of the compatible agents were added at a first day and the l-OHP was added at a third day.

[3] = system: human leutecyte strain cells (RPMI-8402); assay: Rapid inspection of carcinostatic substances by counting divided cells with DAPI; details: for number of the divided cells compared with the control (FIG. 15): 0.05 μg/ml VCR, 0.05 μg/ml VDS, 20 μg/ml MST-16, with 1 μg/ml DAPI; for division phases of the divided cells (microscope observation): ratio of the divided cells increased after the initiation of the cultivation, no anaphase or telophase cells observed
Protocol: After over a certain number of cancer cells are prepared by cultivation, a carcinostatic substance is added to the cancer cells. The number of the cells under the cell division at the respective measuring times is counted while continuing the cultivation. […] Accordingly, the effectiveness of the carcinostatic substance can be inspected by counting the number of the cells under the cell division among a certain number (for example, one thousand) of cells several times, comparing the said number with that of the former counting or the previous counting thereof and grasping the progress of the cell division by means of the increase or the decrease of the above comparison. If the DAPI is added with the carcinostatic substance during this procedure, the accurate counting of the number of the divided cells can be performed because the cells under the any phase of the cell division can be recognized. When the number of the divided cells decreases as a result of the comparison between the measurement values, it is judged that the multiplication of the cancer cells is depressed, or the function of the carcinostatic substance is performed. When, on the other hand, the number of the divided cells increases compared with the control, a certain function of the carcinostatic substance is judged to be performed. […] To the respective cultivation liquids were added, together with 1 μg/ml of the DAPI, (1) the control (no addition of the carcinostatic substance), (2) 5 μg/ml of CPT (camptotecin), (3) 10 μg/ml of CPT-11 ([…]), (4) 0.06 μg/ml of ADR (adriamycin), (5) 0.05 μg/ml of DNR (daunomycin), (6) 1 μ/ml of etoposide, (7) 20 μg/ml of MST-16 (sopsoxane), (8) 1 μg/ml of […]), (9) μg/ml of Act-D (actinomycin D), (10) 0.1 μg/ml of mitoxantrone. (11) 20 μg/ml of 5-FU, (12) 10 μg/ml of Ara-C (cytosinarabinoside) (13) 50 μg/ml of hydroxyurea, (14) 2 μg/ml of Aphidicolin, (15) 10 μg/ml of MTX (mesotroxate), (16) 0.05 μg/ml of VCR (vincristin), (17) 0.05 μg/ml of […]). (5) μg/ml of cisplatin, (18) 10 μg/ml of bleomycin, (20)10 μg/ml of MMC (mitomycin C) and (21) 5 μg/ml of cyclophospamide (endoxane). The samples were sampled from the respective cultivation liquids after one hour, […], 24 hours and then every 24 hour from the initiation of the cultivation. The samples were evaluated in accordance with the procedures of the preceding Examples. The results are shown in a graph of FIG. 15.

[4] = larger dosage of compatible agent (μg/ml: cisplatin 1, 5-FU 10, irinotecane 10, adriamycin 0.05, vincristin 0.05, vindecin 0.05, etoposide 1, bleomycin 10, mitoxantrone 0.1, mitomycine 1), l-OHP 1 μg/ml (5 μg/ml with irinotecane) added day 1
[5] = larger dosage of compatible agent (μg/ml: cisplatin 1, 5-FU 10, irinotecane 10, adriamycin 0.05, vincristin 0.05, vindecin 0.05, etoposide 1, bleomycin 10, mitoxantrone 0.1, mitomycine 1), l-OHP 1 μg/ml (5 μg/ml with irinotecane)
[6] = larger dosage of compatible agent added day 1 (μg/ml: cisplatin 1, 5-FU 10, irinotecane 10, adriamycin 0.05, vincristin 0.05, vindecin 0.05, etoposide 1, bleomycin 10, mitoxantrone 0.1, mitomycine 1), l-OHP 1 μg/ml (5 μg/ml with irinotecane)
[7] = smaller dosage of compatible agent (μg/ml: cisplatin 0.5, 5-FU 5, irinotecane 10, adriamycin 0.01, vincristin 0.01, vindecin 0.01, etoposide 0.5, bleomycin 1, mitoxantrone 0.05, mitomycine 0.5), l-OHP 1 μg/ml added day 1
[8] = smaller dosage of compatible agent (μg/ml: cisplatin 0.5, 5-FU 5, irinotecane 10, adriamycin 0.01, vincristin 0.01, vindecin 0.01, etoposide 0.5, bleomycin 1, mitoxantrone 0.05, mitomycine 0.5), l-OHP 1 μg/ml
[9] = smaller dosage of compatible agent added day 1 (μg/ml: cisplatin 0.5, 5-FU 5, irinotecane 10, adriamycin 0.01, vincristin 0.01, vindecin 0.01, etoposide 0.5, bleomycin 1, mitoxantrone 0.05, mitomycine 0.5), l-OHP 1 μg/ml

Structure (SMILES): CN1CCN(c2ccc3[nH]c(-c4ccc5[nH]c(-c6ccc(O)cc6)nc5c4)nc3c2)CC1 [Hoechst 33258]
- toxicity of fluorescence dye to the cell [1]: toxicity is too strong to keep the cell alive

Structure (SMILES): CC[C@]1(O)C[C@@H]2CN(CCc3c([nH]c4ccccc34)[C@@](C(=O)OC)(c3cc4c(cc3OC)N(C)[C@H]3[C@@](O)(C(N)=O)[C@H](O)[C@]5(CC)C=CCN6CC[C@]43[C@@H]65)C2)C1 [vindecin]
- compatible administration effect with l-OHP, summary in words [2]: the additive effect at best; also recorded: no synergistic effects can be obtained in all the 14 combinations and the additive effects can be obtained in only three combinations
- Compatible Effects of l-OHP and Compatible Agent, Time Lag Administration, Addition Administration of Compatible Agent day 2 [2, 4]: Δ (Δ: Below Additive Effect)
- Compatible Effects of l-OHP and Compatible Agent, Time Lag Administration, Addition Administration of Compatible Agent day 3 [2, 4]: Δ (Δ: Below Additive Effect)
- Compatible Effects of l-OHP and Compatible Agent, Time Lag Administration, Addition Administration of Compatible Agent day 4 [2, 4]: Δ (Δ: Below Additive Effect)
- Compatible Effects of l-OHP and Compatible Agent, Simultaneous Administration [2, 5]: ◯ (◯: Additive Effect)
- Compatible Effects of l-OHP and Compatible Agent, Time Lag Administration, Addition Administration of l-OHP day 2 [2, 6]: ◯ (◯: Additive Effect)
- Compatible Effects of l-OHP and Compatible Agent, Time Lag Administration, Addition Administration of l-OHP day 3 [2, 6]: Δ (Δ: Below Additive Effect)
- Compatible Effects of l-OHP and Compatible Agent, Time Lag Administration, Addition Administration of l-OHP day 4 [2, 6]: Δ (Δ: Below Additive Effect)
- Compatible Effects of l-OHP and Compatible Agent, Time Lag Administration, Addition Administration of Compatible Agent day 2 [2, 7]: Δ (Δ: Below Additive Effect)
- Compatible Effects of l-OHP and Compatible Agent, Time Lag Administration, Addition Administration of Compatible Agent day 3 [2, 7]: Δ (Δ: Below Additive Effect)
- Compatible Effects of l-OHP and Compatible Agent, Time Lag Administration, Addition Administration of Compatible Agent day 4 [2, 7]: ◯ (◯: Additive Effect)
- Compatible Effects of l-OHP and Compatible Agent, Simultaneous Administration [2, 8]: Δ (Δ: Below Additive Effect)
- Compatible Effects of l-OHP and Compatible Agent, Time Lag Administration, Addition Administration of l-OHP day 2 [2, 9]: Δ (Δ: Below Additive Effect)
- Compatible Effects of l-OHP and Compatible Agent, Time Lag Administration, Addition Administration of l-OHP day 3 [2, 9]: Δ (Δ: Below Additive Effect)
- Compatible Effects of l-OHP and Compatible Agent, Time Lag Administration, Addition Administration of l-OHP day 4 [2, 9]: Δ (Δ: Below Additive Effect)
- number of the divided cells compared with the control (FIG. 15) [3]: remarkable increases of the numbers of the divided cells
- division phases of the divided cells (microscope observation) [3]: the division prophase and the division metaphase

Structure (SMILES): CC[C@]1(O)C[C@H]2CN(CCc3c([nH]c4ccccc34)[C@@](C(=O)OC)(c3cc4c(cc3OC)N(C=O)[C@H]3[C@@](O)(C(=O)OC)[C@H](OC(C)=O)[C@]5(CC)C=CCN6CC[C@]43[C@@H]65)C2)C1 [vincristin]
- compatible administration effect with l-OHP, summary in words [2]: the additive effect at best; also recorded: no synergistic effects can be obtained in all the combinations and the additive effects can be obtained in most combinations
- Compatible Effects of l-OHP and Compatible Agent, Time Lag Administration, Addition Administration of Compatible Agent day 2 [2, 4]: Δ (Δ: Below Additive Effect)
- Compatible Effects of l-OHP and Compatible Agent, Time Lag Administration, Addition Administration of Compatible Agent day 3 [2, 4]: Δ (Δ: Below Additive Effect)
- Compatible Effects of l-OHP and Compatible Agent, Time Lag Administration, Addition Administration of Compatible Agent day 4 [2, 4]: ◯ (◯: Additive Effect)
- Compatible Effects of l-OHP and Compatible Agent, Simultaneous Administration [2, 5]: Δ (Δ: Below Additive Effect)
- Compatible Effects of l-OHP and Compatible Agent, Time Lag Administration, Addition Administration of l-OHP day 2 [2, 6]: ◯ (◯: Additive Effect)
- Compatible Effects of l-OHP and Compatible Agent, Time Lag Administration, Addition Administration of l-OHP day 3 [2, 6]: Δ (Δ: Below Additive Effect)
- Compatible Effects of l-OHP and Compatible Agent, Time Lag Administration, Addition Administration of l-OHP day 4 [2, 6]: ◯ (◯: Additive Effect)
- Compatible Effects of l-OHP and Compatible Agent, Time Lag Administration, Addition Administration of Compatible Agent day 2 [2, 7]: ◯ (◯: Additive Effect)
- Compatible Effects of l-OHP and Compatible Agent, Time Lag Administration, Addition Administration of Compatible Agent day 3 [2, 7]: Δ (Δ: Below Additive Effect)
- Compatible Effects of l-OHP and Compatible Agent, Time Lag Administration, Addition Administration of Compatible Agent day 4 [2, 7]: ◯ (◯: Additive Effect)
- Compatible Effects of l-OHP and Compatible Agent, Simultaneous Administration [2, 8]: Δ (Δ: Below Additive Effect)
- Compatible Effects of l-OHP and Compatible Agent, Time Lag Administration, Addition Administration of l-OHP day 2 [2, 9]: ◯ (◯: Additive Effect)
- Compatible Effects of l-OHP and Compatible Agent, Time Lag Administration, Addition Administration of l-OHP day 3 [2, 9]: ◯ (◯: Additive Effect)
- Compatible Effects of l-OHP and Compatible Agent, Time Lag Administration, Addition Administration of l-OHP day 4 [2, 9]: ◯ (◯: Additive Effect)
- number of the divided cells compared with the control (FIG. 15) [3]: remarkable increases of the numbers of the divided cells
- division phases of the divided cells (microscope observation) [3]: the division prophase and the division metaphase

Structure (SMILES): CC(C)COC(=O)OCN1C(=O)CN(CCN2CC(=O)N(COC(=O)OCC(C)C)C(=O)C2)CC1=O [MST-16, sopsoxane]
- number of the divided cells compared with the control (FIG. 15) [3]: increase of the number of the divided cells was momentarily observed
- division phases of the divided cells (microscope observation) [3]: the division prophase and the division metaphase

Source: patent publication US6518278B1, “Carcinostatic substance for compatible administration, process of administrating same and process of rapidly inspecting same” (Debio Pharm S.A., priority 1994, dated 2003)
